Data on two molecules can be found in patent publication US6734182B2, “Aryl sulfonamides and sulfamide derivatives and uses thereof” (Synaptic Pharmaceutical Corporation, priority 1995, dated 2004).

In assay [1] the target is T1, human histamine H2 receptor (Homo sapiens, UniProt P25021).
T1 construct: expressed in transfected cells; host or cells: COS-7 cells, transient (DEAE-dextran), plasmid pcEXV-H2 (ATCC 75345)
The experiment in a line: Binding to human histamine H2 receptor ([3H]tiotidine). Particulars: cloned human receptor.
Procedure: The binding of the histamine H2 antagonist [^3H]tiotidine (5 nM, specific activity: 70 Ci/mM) was done in a final volume of 0.25 ml and incubated at room temperature for 60 min. Nonspecific binding was determined in the presence of 10 μM histamine.

The target of another assay is 5HT1a (Homo sapiens, UniProt P08908). The experiment in a line: Binding to cloned human 5HT1a receptor.
5HT1a, sequence (P08908 whole entry): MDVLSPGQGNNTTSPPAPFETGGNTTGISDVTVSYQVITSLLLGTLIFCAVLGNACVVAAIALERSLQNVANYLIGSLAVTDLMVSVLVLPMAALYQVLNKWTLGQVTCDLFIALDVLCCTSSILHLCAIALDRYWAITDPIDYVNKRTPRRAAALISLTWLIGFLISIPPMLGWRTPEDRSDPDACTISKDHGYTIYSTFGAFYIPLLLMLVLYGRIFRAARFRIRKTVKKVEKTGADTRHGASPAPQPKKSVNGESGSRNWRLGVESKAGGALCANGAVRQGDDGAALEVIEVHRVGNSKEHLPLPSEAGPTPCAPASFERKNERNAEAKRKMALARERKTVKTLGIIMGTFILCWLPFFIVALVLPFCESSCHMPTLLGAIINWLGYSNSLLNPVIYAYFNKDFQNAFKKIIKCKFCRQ
Assay [2] deals with NPY-induced feeding behavior in satiated rats. Description: NPY-induced food intake in satiated rats. The format is in vivo, rat. Particulars: compound 30 mg/kg i.p., then 300 pmole NPY i.c.v., 4 hours after NPY, in g (unit assumed). As for the experimental part: For these determinations food intake maybe measured in normal satiated rats after intracerebroventricular application (i.c.v.) of NPY in the presence or absence of the test compound. Male Sprague Dawley rats ciba-Geigy AG, Sisseln, Switzerland weighing between 180 g and 220 g are used for all experiments. The rats are individually housed in stainless steel cages and maintained on an 11:13 h light-dark cycle (lights off at 18:00 h) at a controlled temperature of 21-23° C. at all times. Water and food (NAFAG lab chow pellets, NAFAG, Gossau, Switzerland) are available ad libidum.
Rats under pentobarbital anesthesia are stereotaxically implanted with a stainless steel guide cannula targeted at the right lateral ventricle. Stereotaxic coordinates, with the incisor bar set −2.0 mm below interaural line, are: −0.8 mm anterior and +1.3 mm lateral to bregma. The guide cannula is placed on the dura. […]
Food intake may be measured by placing preweighed pellets into the cages at the time of NPY injection. […] The food intake of animals treated with test compound may be calculated as a percentage of the food intake of control animals, i.e., animals treated with vehicle. Alternatively, food intake for a group of animals subjected to the same experimental condition may be expressed as the mean ±S.E.M. Statistical analysis is performed by analysis of variance using the Student-Newman-Keuls test. […]

T1 sequence (P25021 whole entry): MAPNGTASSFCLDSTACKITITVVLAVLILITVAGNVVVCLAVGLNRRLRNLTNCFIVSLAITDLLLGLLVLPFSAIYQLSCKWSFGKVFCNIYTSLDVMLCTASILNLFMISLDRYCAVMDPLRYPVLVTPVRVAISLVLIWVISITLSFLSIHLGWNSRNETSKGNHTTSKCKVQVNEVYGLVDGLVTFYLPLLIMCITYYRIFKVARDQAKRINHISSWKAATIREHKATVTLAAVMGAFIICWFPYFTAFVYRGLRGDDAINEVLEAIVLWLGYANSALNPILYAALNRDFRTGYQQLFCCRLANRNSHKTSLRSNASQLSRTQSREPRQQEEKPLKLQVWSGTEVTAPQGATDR

`Cl.O=[N+]([O-])c1ccccc1S(=O)(=O)NCC1CCC(CNCC2CCc3ccccc3C2)CC1` (stereo not drawn) [Example 36]: the “Receptor (pKi) H2” value in assay [1] came out at 5.85.

For the molecule `Cl.O=S(=O)(NCC1CCC(CNCC2CCc3ccccc3C2)CC1)c1cccc2ccccc12` (stereo not drawn) [Example 32], the “Receptor (pKi) 5HT1a” value at 5HT1a is reported as 5.54. The “NPY-induced cumulative food intake (NPY + compound), mean ± S.E.M.” value in assay [2] is recorded as 1.5 ± 0.6.
